{"source": "patent US11292796B2", "about": "(SIGNAL PHARMACEUTICALS, LLC, priority 2008, dated 2022)", "target": "T1, mTOR (Homo sapiens, UniProt P42345)", "T1 construct": "purchased Invitrogen PR8683A", "T1 sequence (P42345 1360-2549 limits assumed)": "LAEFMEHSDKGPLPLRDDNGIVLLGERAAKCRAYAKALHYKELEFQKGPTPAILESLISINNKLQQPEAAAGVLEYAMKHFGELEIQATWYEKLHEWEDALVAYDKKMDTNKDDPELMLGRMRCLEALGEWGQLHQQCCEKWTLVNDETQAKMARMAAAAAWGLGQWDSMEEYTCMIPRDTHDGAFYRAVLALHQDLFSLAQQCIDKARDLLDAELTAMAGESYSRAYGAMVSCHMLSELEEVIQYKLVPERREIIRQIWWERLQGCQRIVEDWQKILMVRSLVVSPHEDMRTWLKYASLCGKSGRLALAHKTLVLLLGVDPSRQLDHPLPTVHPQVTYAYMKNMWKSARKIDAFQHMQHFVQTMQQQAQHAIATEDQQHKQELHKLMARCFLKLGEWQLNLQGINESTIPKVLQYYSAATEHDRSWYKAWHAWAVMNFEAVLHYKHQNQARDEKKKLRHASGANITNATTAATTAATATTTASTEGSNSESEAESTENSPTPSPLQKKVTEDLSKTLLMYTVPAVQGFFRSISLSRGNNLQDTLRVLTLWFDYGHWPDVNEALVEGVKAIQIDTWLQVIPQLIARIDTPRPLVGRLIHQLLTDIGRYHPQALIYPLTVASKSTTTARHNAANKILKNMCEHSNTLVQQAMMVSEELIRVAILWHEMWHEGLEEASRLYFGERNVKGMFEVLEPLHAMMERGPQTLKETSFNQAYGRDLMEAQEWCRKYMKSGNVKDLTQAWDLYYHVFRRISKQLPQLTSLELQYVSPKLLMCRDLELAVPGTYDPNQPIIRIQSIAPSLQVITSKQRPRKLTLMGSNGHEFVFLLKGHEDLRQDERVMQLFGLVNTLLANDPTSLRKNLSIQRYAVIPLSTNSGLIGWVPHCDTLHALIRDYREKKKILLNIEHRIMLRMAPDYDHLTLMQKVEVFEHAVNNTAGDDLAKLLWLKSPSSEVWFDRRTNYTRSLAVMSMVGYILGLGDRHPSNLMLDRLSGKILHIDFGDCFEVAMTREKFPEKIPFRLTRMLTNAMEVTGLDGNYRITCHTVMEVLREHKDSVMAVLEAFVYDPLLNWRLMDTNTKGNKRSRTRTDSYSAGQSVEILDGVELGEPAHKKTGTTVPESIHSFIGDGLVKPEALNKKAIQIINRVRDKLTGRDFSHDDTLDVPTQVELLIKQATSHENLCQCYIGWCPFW", "assay": "mTOR HTR-FRET assay", "assay_type": "biochemical", "conditions": "read-out: Act. Level (IC50 in mTor HTR-FRET assay)", "procedure": "The following is an example of an assay that can be used to determine the mTOR inhibitory activity of a test compound. Heteroaryl Compounds were dissolved in DMSO and prepared as 10 mM stocks and diluted appropriately for the experiments. Reagents were prepared as follows:\n“Simple TOR buffer” (used to dilute high glycerol TOR fraction): 10 mM Tris pH 7.4, 100 mM NaCl, 0.1% Tween-20, 1 mM DTT. Invitrogen mTOR (cat #PR8683A) was diluted in this buffer to an assay concentration of 0.200 μg/mL.\nTo 20 μL of the Simple mTor buffer is added 0.5 μL of test compound in DMSO. To initiate the reaction 5 μL of ATP/Substrate solution was added to 20 μL of the Simple TOR buffer solution (control) and to the compound solution prepared above.", "data": [{"smiles": "CO[C@H]1CC[C@H](CN2CC(=O)Nc3ncc(-c4ccc(-c5nc[nH]n5)nc4)nc32)CC1", "note": "[Example 5]", "values": [{"measurement": "IC50", "result": "0.005 to 250", "unit": "nM"}]}, {"smiles": "CO[C@H]1CC[C@@H](CN2CC(=O)Nc3ncc(-c4ccc(-c5nc[nH]n5)nc4)nc32)CC1", "note": "[Example 7]", "values": [{"measurement": "IC50", "result": "0.005 to 250", "unit": "nM"}]}, {"smiles": "CO[C@H]1CC[C@H](N2CC(=O)Nc3ncc(-c4ccc(-c5nc[nH]n5)nc4)nc32)CC1", "note": "[Example 12]", "values": [{"measurement": "IC50", "result": "0.005 to 250", "unit": "nM"}]}, {"smiles": "COCCN1CC(=O)Nc2ncc(-c3ccc(-c4nc[nH]n4)nc3)nc21", "note": "[Example 16]", "values": [{"measurement": "IC50", "result": "0.005 to 250", "unit": "nM"}]}, {"smiles": "O=C1CN(C2CCOCC2)c2nc(-c3ccc(-c4nc[nH]n4)nc3)cnc2N1", "note": "[Example 21, 6-(6-(1H-1,2,4-triazol-3-yl)pyridin-3-yl)-4-(tetrahydro-2H-pyran-4-yl)-3,4-dihydropyrazino[2,3-b]pyrazin-2(1H)-one]", "values": [{"measurement": "IC50", "result": "0.005 to 250", "unit": "nM"}]}, {"smiles": "CCN1CC(=O)Nc2ncc(-c3ccc(-c4nc[nH]n4)nc3)nc21", "note": "[Example 22, 6-(6-(1H-1,2,4-triazol-3-yl)pyridin-3-yl)-4-ethyl-3,4-dihydropyrazino[2,3-b]pyrazin-2(1H)-one]", "values": [{"measurement": "IC50", "result": "0.005 to 250", "unit": "nM"}]}, {"smiles": "Cc1cc(-c2nc[nH]n2)c(F)cc1-c1cnc2c(n1)N([C@H]1CC[C@H](O)CC1)CC(=O)N2", "note": "[Example 23, 6-(5-fluoro-2-methyl-4-(1H-1,2,4-triazol-3-yl)phenyl)-4-(trans-4-hydroxycyclohexyl)-3,4-dihydropyrazino[2,3-b]pyrazin-2(1H)-one]", "values": [{"measurement": "IC50", "result": "0.005 to 250", "unit": "nM"}]}, {"smiles": "Cc1cc(-c2nc[nH]n2)c(F)cc1-c1cnc2c(n1)N(C1CCOCC1)CC(=O)N2", "note": "[Example 24, 6-(5-fluoro-2-methyl-4-(1H-1,2,4-triazol-3-yl)phenyl)-4-(tetrahydro-2H-pyran-4-yl)-3,4-dihydropyrazino[2,3-b]pyrazin-2(1H)-one]", "values": [{"measurement": "IC50", "result": "0.005 to 250", "unit": "nM"}]}, {"smiles": "Cc1cc(-c2nc[nH]n2)c(F)cc1-c1cnc2c(n1)N(C(C)C)CC(=O)N2", "note": "[Example 25, 6-(5-fluoro-2-methyl-4-(1H-1,2,4-triazol-3-yl)phenyl)-4-isopropyl-3,4-dihydropyrazino[2,3-b]pyrazin-2(1H)-one]", "values": [{"measurement": "IC50", "result": "0.005 to 250", "unit": "nM"}]}, {"smiles": "CCN1CC(=O)Nc2ncc(-c3cc(F)c(-c4nc[nH]n4)cc3C)nc21", "note": "[Example 26, 4-ethyl-6-(5-fluoro-2-methyl-4-(1H-1,2,4-triazol-3-yl)phenyl)-3,4-dihydropyrazino[2,3-b]pyrazin-2(1H)-one]", "values": [{"measurement": "IC50", "result": "0.005 to 250", "unit": "nM"}]}, {"smiles": "Cc1c(-c2cnc3c(n2)N(C2CCOCC2)CC(=O)N3)ccc(-c2nc[nH]n2)c1F", "note": "[Example 27, 6-(3-fluoro-2-methyl-4-(1H-1,2,4-triazol-3-yl)phenyl)-4-(tetrahydro-2H-pyran-4-yl)-3,4-dihydropyrazino[2,3-b]pyrazin-2(1H)-one]", "values": [{"measurement": "IC50", "result": "0.005 to 250", "unit": "nM"}]}, {"smiles": "CO[C@H]1CC[C@@H](N2CC(=O)Nc3ncc(-c4ccc(-c5nc[nH]n5)c(F)c4C)nc32)CC1", "note": "[Example 28, 6-(3-fluoro-2-methyl-4-(1H-1,2,4-triazol-3-yl)phenyl)-4-(cis-4-methoxycyclohexyl)-3,4-dihydropyrazino[2,3-b]pyrazin-2(1H)-one]", "values": [{"measurement": "IC50", "result": "0.005 to 250", "unit": "nM"}]}, {"smiles": "CO[C@H]1CC[C@H](N2CC(=O)Nc3ncc(-c4ccc(-c5nc[nH]n5)c(F)c4C)nc32)CC1", "note": "[Example 29, 6-(3-fluoro-2-methyl-4-(1H-1,2,4-triazol-3-yl)phenyl)-4-(trans-4-methoxycyclohexyl)-3,4-dihydropyrazino[2,3-b]pyrazin-2(1H)-one]", "values": [{"measurement": "IC50", "result": "0.005 to 250", "unit": "nM"}]}, {"smiles": "COCCN1CC(=O)Nc2ncc(-c3cnc(-c4nc[nH]n4)cc3C)nc21", "note": "[Example 30, 4-(2-methoxyethyl)-6-(4-methyl-6-(1H-1,2,4-triazol-3-yl)pyridin-3-yl)-3,4-dihydropyrazino[2,3-b]pyrazin-2(1H)-one]", "values": [{"measurement": "IC50", "result": "0.005 to 250", "unit": "nM"}]}, {"smiles": "O=C1CN(CCC2CCOCC2)c2nc(-c3cccc(-c4ncn[nH]4)c3)cnc2N1", "note": "[Example 31, 6-(3-(1H-1,2,4-triazol-5-yl)phenyl)-4-(2-(tetrahydro-2H-pyran-4-yl)ethyl)-3,4-dihydropyrazino[2,3-b]pyrazin-2(1H)-one]", "values": [{"measurement": "IC50", "result": "1000 to 10000", "unit": "nM"}]}, {"smiles": "COCCN1CC(=O)Nc2ncc(-c3cnc(C(N)=O)cc3C)nc21", "note": "[Example 32, 5-(8-(2-methoxyethyl)-6-oxo-5,6,7,8-tetrahydropyrazino[2,3-b]pyrazin-2-yl)-4-methylpicolinamide]", "values": [{"measurement": "IC50", "result": "0.005 to 250", "unit": "nM"}]}, {"smiles": "NC(=O)c1cccc(-c2cnc3c(n2)N(CCC2CCOCC2)CC(=O)N3)c1", "note": "[Example 33, 3-(6-oxo-8-(2-(tetrahydro-2H-pyran-4-yl)ethyl)-5,6,7,8-tetrahydropyrazino[2,3-b]pyrazin-2-yl)benzamide]", "values": [{"measurement": "IC50", "result": "500 to 1000", "unit": "nM"}]}, {"smiles": "N#Cc1cccc(-c2cnc3c(n2)N(CCC2CCOCC2)CC(=O)N3)c1", "note": "[Example 34, 3-(6-oxo-8-(2-(tetrahydro-2H-pyran-4-yl)ethyl)-5,6,7,8-tetrahydropyrazino[2,3-b]pyrazin-2-yl)benzonitrile]", "values": [{"measurement": "IC50", "result": "500 to 1000", "unit": "nM"}]}, {"smiles": "CO[C@H]1CC[C@H](N2CC(=O)Nc3ncc(-c4cnc(C(N)=O)cc4C)nc32)CC1", "note": "[Example 35, 5-(S-(trans-4-methoxycyclohexyl)-6-oxo-5,6,7,8-tetrahydropyrazino[2,3-b]pyrazin-2-yl)-4-methylpicolinamide]", "values": [{"measurement": "IC50", "result": "0.005 to 250", "unit": "nM"}]}, {"smiles": "O=C1CN(CCC2CCOCC2)c2nc(-c3cnc4nc[nH]c4c3)cnc2N1", "note": "[Example 36, 6-(1H-imidazo[4,5-b]pyridin-6-yl)-4-(2-(tetrahydro-2H-pyran-4-yl)ethyl)-3,4-dihydropyrazino[2,3-b]pyrazin-2(1H)-one]", "values": [{"measurement": "IC50", "result": "500 to 1000", "unit": "nM"}]}, {"smiles": "O=C1CN(CCC2CCOCC2)c2nc(-c3ccc4cn[nH]c4c3)cnc2N1", "note": "[Example 37, 6-(1H-indazol-6-yl)-4-(2-(tetrahydro-2H-pyran-4-yl)ethyl)-3,4-dihydropyrazino[2,3-b]pyrazin-2(1H)-one]", "values": [{"measurement": "IC50", "result": "1000 to 10000", "unit": "nM"}]}, {"smiles": "CO[C@H]1CC[C@@H](N2CC(=O)Nc3ncc(-c4ccc(-c5nnc[nH]5)nc4C)nc32)C1", "note": "[Example 38, 4-((1R,3S)-3-methoxycyclopentyl)-6-(2-methyl-6-(4H-1,2,4-triazol-3-yl)pyridin-3-yl)-3,4-dihydropyrazino[2,3-b]pyrazin-2(1H)-one]", "values": [{"measurement": "IC50", "result": "0.005 to 250", "unit": "nM"}]}, {"smiles": "CO[C@@H]1CC[C@H](N2CC(=O)Nc3ncc(-c4ccc(-c5nnc[nH]5)nc4C)nc32)C1", "note": "[Example 39, 4-((1S,3R)-3-methoxycyclopentyl)-6-(2-methyl-6-(4H-1,2,4-triazol-3-yl)pyridin-3-yl)-3,4-dihydropyrazino[2,3-b]pyrazin-2(1H)-one]", "values": [{"measurement": "IC50", "result": "0.005 to 250", "unit": "nM"}]}, {"smiles": "CO[C@@H]1CC[C@@H](N2CC(=O)Nc3ncc(-c4ccc(-c5nnc[nH]5)nc4C)nc32)C1", "note": "[Example 40, 4-((1R,3R)-3-methoxycyclopentyl)-6-(2-methyl-6-(4H-1,2,4-triazol-3-yl)pyridin-3-yl)-3,4-dihydropyrazino[2,3-b]pyrazin-2(1H)-one]", "values": [{"measurement": "IC50", "result": "0.005 to 250", "unit": "nM"}]}, {"smiles": "CO[C@H]1CC[C@H](N2CC(=O)Nc3ncc(-c4ccc(-c5nnc[nH]5)nc4C)nc32)C1", "note": "[Example 41, 4-((1S,3S)-3-methoxycyclopentyl)-6-(2-methyl-6-(4H-1,2,4-triazol-3-yl)pyridin-3-yl)-3,4-dihydropyrazino[2,3-b]pyrazin-2(1H)-one]", "values": [{"measurement": "IC50", "result": "0.005 to 250", "unit": "nM"}]}, {"smiles": "O=C1CN(CCC2CCOCC2)c2nc(-c3cnc4[nH]ccc4c3)cnc2N1", "note": "[Example 43, 6-(1H-pyrrolo[2,3-b]pyridin-5-yl)-4-(2-(tetrahydro-2H-pyran-4-yl)ethyl)-3,4-dihydropyrazino[2,3-b]pyrazin-2(1H)-one]", "values": [{"measurement": "IC50", "result": "0.005 to 250", "unit": "nM"}]}, {"smiles": "O=C1CN(CCC2CCOCC2)c2nc(-c3ccc4cc[nH]c4c3)cnc2N1", "note": "[Example 44, 6-(1H-indol-6-yl)-4-(2-(tetrahydro-2H-pyran-4-yl)ethyl)-3,4-dihydropyrazino[2,3-b]pyrazin-2(1H)-one]", "values": [{"measurement": "IC50", "result": "250 to 500", "unit": "nM"}]}, {"smiles": "CO[C@H]1CC[C@@H](CN2CC(=O)Nc3ncc(-c4ccc(-c5nnc[nH]5)nc4C)nc32)C1", "note": "[Example 46, 4-(((1R,3S)-3-methoxycyclopentyl)methyl)-6-(2-methyl-6-(4H-1,2,4-triazol-3-yl)pyridin-3-yl)-3,4-dihydropyrazino[2,3-b]pyrazin-2(1H)-one]", "values": [{"measurement": "IC50", "result": "0.005 to 250", "unit": "nM"}]}, {"smiles": "CO[C@@H]1CC[C@H](CN2CC(=O)Nc3ncc(-c4ccc(-c5nnc[nH]5)nc4C)nc32)C1", "note": "[Example 47, 4-(((1S,3R)-3-methoxycyclopentyl)methyl)-6-(2-methyl-6-(4H-1,2,4-triazol-3-yl)pyridin-3-yl)-3,4-dihydropyrazino[2,3-b]pyrazin-2(1H)-one]", "values": [{"measurement": "IC50", "result": "0.005 to 250", "unit": "nM"}]}, {"smiles": "Cc1c(-c2cnc3c(n2)N(CCC2CCOCC2)CC(=O)N3)ccc(-c2nnc[nH]2)c1F", "note": "[Example 48, 6-(3-fluoro-2-methyl-4-(4H-1,2,4-triazol-3-yl)phenyl)-4-(2-(tetrahydro-2H-pyran-4-yl)ethyl)-3,4-dihydropyrazino[2,3-b]pyrazin-2(1H)-one]", "values": [{"measurement": "IC50", "result": "0.005 to 250", "unit": "nM"}]}, {"smiles": "COCCN1CC(=O)Nc2ncc(-c3ccc(-c4nnc[nH]4)c(F)c3C)nc21", "note": "[Example 49, 6-(3-fluoro-2-methyl-4-(4H-1,2,4-triazol-3-yl)phenyl)-4-(2-methoxyethyl)-3,4-dihydropyrazino[2,3-b]pyrazin-2(1H)-one]", "values": [{"measurement": "IC50", "result": "0.005 to 250", "unit": "nM"}]}, {"smiles": "Cc1cc(-c2nnc[nH]2)ncc1-c1cnc2c(n1)N(CC1CCOCC1)C(C)(C)C(=O)N2", "note": "[Example 50, 3,3-dimethyl-6-(4-methyl-6-(4H-1,2,4-triazol-3-yl)pyridin-3-yl)-4-((tetrahydro-2H-pyran-4-yl)methyl)-3,4-dihydropyrazino[2,3-b]pyrazin-2(1H)-one]", "values": [{"measurement": "IC50", "result": "0.005 to 250", "unit": "nM"}]}, {"smiles": "CO[C@H]1CC[C@@H](N2CC(=O)Nc3ncc(-c4ccc(C(C)(C)O)nc4)nc32)C1", "note": "[Example 51, 6-(6-(2-hydroxypropan-2-yl)pyridin-3-yl)-4-((1R,3S)-3-methoxycyclopentyl)-3,4-dihydropyrazino[2,3-b]pyrazin-2(1H)-one]", "values": [{"measurement": "IC50", "result": "0.005 to 250", "unit": "nM"}]}]}
